The results in this text go back to US12496267B2, “Extract of organic humified materials” (priority 2019, dated 2025).

Holding throughout (type): cell-based
The test system of one assay is IL-8. Put plainly: Inflammation: reconstructed human epidermis/PBMC, MSD U-PLEX, IL-8. Here is the method:
(§1) Potential immune modulatory effects were determined on reconstructed human epidermis (RHE) using a 3D Skin Modell (Cell systems). In the first step the skin patches are stimulated with specific controls and stimuli for a defined time period. In this context it had to be considered that different stimuli require different incubation times. The incubation with heat inactivated C.acnes (10^7 cells/approach) as well as the direct incubation with the test substances (AHE/FA/BIS) was performed for 16h at 37° C. The AHE test substances comprised AHE solutions, comprising either 1%, 2% or 5% AHE in PBS, generated as described in Example 8. The incubation with the positive control (5% SDS) was performed for 20 min (37° C.). After the primary stimulation step skin patches were washed (PBS 3×300 μl) and subjected to a regeneration phase (24h/37° C.) in presence of the indicated substances (CM/AHE/FA/CH/BIS). After this incubation phase the culture medium of each approach was isolated and used to stimulate human PBMCs. Hereby 100 μl of the RHE culture was added cultures of human PBMCs (1×10^6 cells in 300 μl culture medium) and incubated for additional 16 h (37° C.). After this incubation step, PBMCs were separated by centrifugation and the supernatant was saved for the MSD multiplexing platform. In parallel the cells of the RHE culture were subjected to cell lysis (1% SDS, 30 min/4° C. agitation). Cell extracts were saved for the MSD multiplexing platform.
(§2) Using the MSD U-PLEX it is possible to create an individualized multiplex assays for any combination of analytes. Hereby biotinylated capture reagents are coupled to U-PLEX Linkers. The U-PLEX Linkers then self-assemble onto unique spots on the U-PLEX plate. After analytes in the sample bind to the capture reagents, detection antibodies conjugated with electro-chemiluminescent labels (MSD GOLD SULFO-TAG) bind to the analytes to complete the sandwich immunoassay. Using this technology, the following markers were immobilized:
(§3) U-PLEX Human IFN-γ, U-PLEX Human IL-16, U-PLEX Human IL-2, U-PLEX Human IL-4, U-PLEX Human IL-5, U-PLEX Human IL-6, U-PLEX Human IL-8, U-PLEX Human IL-12p70, U-PLEX Human IL-13, U-PLEX Human IL-17A, U-PLEX Human IL-17F, U-PLEX Human IL-22, U-PLEX Human IL-23, U-PLEX Human TNF-α. U-PLEX Human TGF-β1. All steps were performed according to the supplier's protocol.
(§4) As described above, the Reconstructed human epidermis (RhE) was stimulated with the indicated substances and stimuli (Sample # Description, Tables 11-21) for 16 h. Upon this step the RhE was washed and in incubated in a second line with the indicated substances or culture medium. As controls, the RhE was treated in the first line with PBS and subsequently with culture medium. As further controls the PBMCs were treated with culture medium alone, with heat inactivated C. acnes and with pooled supernantant (SN) of the RhEs before stimulation. For Mesoscale analysis, the supernatant of the PBMC culture (PBMCs) was compared with a cell extract of the RhE prepared after the individual incubation steps (RhEs) and the supernatant of the RhEs after the stimulation steps (SN RhEs). RhE treated in the first and second line with culture medium (Rhe NC) can be used as negative control in all settings.

The test system of a further assay is IL-6. Put plainly: Inflammation: reconstructed human epidermis/PBMC, MSD U-PLEX, IL-6. Here is the method:
as §1, §2, §3, §4

In another assay the test system is IL-4. Put plainly: Inflammation: reconstructed human epidermis/PBMC, MSD U-PLEX, IL-4. Particulars: PBMCs (supernatant). Here is the method: as §1
(§5) Using the MSD U-PLEX it is possible to create an individualized multiplex assays for any combination of analytes. Hereby biotinylated capture reagents are coupled to U-PLEX Linkers. The U-PLEX Linkers then self-assemble onto unique spots on the U-PLEX plate. After analytes in the sample bind to the capture reagents, detection antibodies conjugated with electro-chemiluminescent labels (MSD GOLD SULFO-TAG) bind to the analytes to complete the sandwich immunoassay. Using this technology, the following markers were immobilized: […]

The next assay deals with IL-1β. The experiment in a line: Inflammation: reconstructed human epidermis/PBMC, MSD U-PLEX, IL-1β. On the procedure:
as §1, §2, §3, §4

A further assay deals with TNFα. The experiment in a line: Inflammation: reconstructed human epidermis/PBMC, MSD U-PLEX, TNFα. Here is the method: as §1, §2, §3, §4
Another assay concerns IL-5. Put plainly: Inflammation: reconstructed human epidermis/PBMC, MSD U-PLEX, IL-5. On the procedure: as §1, §2, §3, §4
The subject of another assay is IFN-γ. The experiment in a line: Inflammation: reconstructed human epidermis/PBMC, MSD U-PLEX, IFN-γ. Here is the method:
as §1, §2, §3, §4

The test system of a further assay is IL-12p70. The experiment in a line: Inflammation: reconstructed human epidermis/PBMC, MSD U-PLEX, IL-12p70. Here is the method:
as §1, §2, §3
As described above, the Reconstructed human epidermis (RhE) was stimulated with the indicated substances and stimuli (Sample # Description, Tables 11-21) for 16 h. Upon this step the RhE was washed and in incubated in a second line with the indicated substances or culture medium. As controls, the RhE was treated in the first line with PBS and subsequently with culture medium. […]

In another assay the test system is IL-13. The experiment in a line: Inflammation: reconstructed human epidermis/PBMC, MSD U-PLEX, IL-13. The note with it: PBMCs (supernatant). Here is the method: as §1, §5
Setting [1] is: PBMCs (supernatant), RhE C. acnes-stimulated, then substance, 1%.
The mark [2] stands for this setting: PBMCs (supernatant), RhE without C. acnes, 1%.
[3] abbreviates: RhEs (cell extract), RhE without C. acnes, 1%.
The mark [4] stands for this setting: SN RhEs, RhE C. acnes-stimulated, then substance, 1%.
[5] abbreviates: SN RhEs, RhE without C. acnes, 1%.
Where [6] appears, read: RhE C. acnes-stimulated, then substance, 1%.
Setting [7] is: PBMCs (supernatant), RhE 5% SDS, then culture medium.
The mark [8] stands for this setting: SN RhEs, RhE 5% SDS, then culture medium.
Where [9] appears, read: RhE 5% SDS, then culture medium.

For the compound `CC(C)=CCC[C@](C)(O)C1CC=C(C)CC1` (stereo partly shown) [Bisabolol], the IL-8 concentration came out at 43765.9 pg/mL in the assay on IL-8 (setting [1]); 44123.3 pg/mL in the assay with IL-8 (setting [2]); 58.1 pg/mL with IL-8 (RhEs (cell extract), RhE C. acnes-stimulated, then substance, 1%); 68.9 pg/mL with IL-8 (setting [3]); 4317.3 pg/mL in the assay on IL-8 (setting [4]); 2459.3 pg/mL with IL-8 (setting [5]). The IL-6 concentration worked out at 13038.0 pg/mL in the assay on IL-6 (setting [1]), 12302.5 pg/mL in the assay with IL-6 (setting [2]), 75.1 pg/mL with IL-6 (setting [4]) and 30.8 pg/mL with IL-6 (setting [5]). Also, the IL-4 concentration with IL-4 (setting [6]) was 10.1 pg/mL; with IL-4 (RhE without C. acnes, 1%) it was 9.1 pg/mL. The IL-1β concentration with IL-1β (setting [1]) worked out at 1525 pg/mL; with IL-1β (setting [2]) it was 1277 pg/mL; with IL-1β (setting [4]), 8.5 pg/mL; with IL-1β (setting [5]) it was 5.4 pg/mL. Besides, the TNFα concentration in the assay with TNFα (setting [1]) was determined as 51.6 pg/mL; in the assay with TNFα (setting [2]), 29.8 pg/mL; in the assay with TNFα (setting [4]), 8.6 pg/mL; with TNFα (setting [5]) it was 17.1 pg/mL. Besides, the IL-5 concentration in the assay with IL-5 (setting [1]) worked out at 24.1 pg/mL; with IL-5 (setting [2]) it was 18.2 pg/mL; in the assay with IL-5 (setting [4]), 1.1 pg/mL; in the assay with IL-5 (setting [5]) it was 0.0 pg/mL. Also, the INF-y concentration was 124.4 pg/mL in the assay on IFN-γ (setting [1]), 90.5 pg/mL in the assay on IFN-γ (setting [2]), 8.3 pg/mL in the assay with IFN-γ (setting [3]) and 13.9 pg/mL with IFN-γ (setting [4]). Besides, the IL-12p70 concentration in the assay with IL-12p70 (setting [1]) came to 69.9 pg/mL; in the assay with IL-12p70 (setting [2]), 51.3 pg/mL; in the assay on IL-12p70 (setting [4]) it was 3.3 pg/mL. For the same compound, the IL-13 concentration with IL-13 (setting [6]) is 186.6 pg/mL; in the assay on IL-13 (RhE without C. acnes, 1%), 157.9 pg/mL.

Turning to `CCCCCCCCCCCCOS(=O)(=O)[O-].[Na+]` [Rhe PC, SDS], the IL-8 concentration with IL-8 (setting [7]) came out at 43111.6 pg/mL; with IL-8 (RhEs (cell extract), RhE 5% SDS, then culture medium) it was 33.5 pg/mL; with IL-8 (setting [8]), 77.2 pg/mL. For the same compound, the values for the IL-6 concentration in the assay on IL-6 (setting [7]) and in the assay on IL-6 (setting [8]) were 12909.3 pg/mL and 0.3 pg/mL, respectively. The IL-4 concentration with IL-4 (setting [9]) worked out at 9.0 pg/mL. In the assay with IL-1β (setting [7]), the IL-1β concentration is 1133 pg/mL. Besides, the TNFα concentration in the assay on TNFα (setting [7]) worked out at 24.0 pg/mL. The figures for the IL-5 concentration in the assay on IL-5 (setting [7]) and in the assay on IL-5 (setting [8]) were 25.4 pg/mL and 1.0 pg/mL, respectively. Moreover, in the assay on IFN-γ (setting [7]), the INF-y concentration is 114.7 pg/mL. Besides, in the assay on IL-12p70 (setting [7]), the IL-12p70 concentration turned out to be 63.0 pg/mL. For the same compound, the IL-13 concentration in the assay with IL-13 (setting [9]) was 220.6 pg/mL.
